Test: Bioaccumulation log Pow (slow stirring method)
Source text: As mentioned before. The environmental acceptability of these esterquat surfactant compounds is of essential importance for emulsion breaking operations in oil production processes.

Dioleic acid triethanolamine esterquat [Di-oleic acid triethanolamine esterquat]
bioaccumulation: log Pow: 0.73

Reference: patent publication US20180291285A1 (Clariant International, Ltd., priority 2015, published 2018)
